The results in this text go back to patent publication US20110262457A1, “MODULATION OF THE IMMUNE RESPONSE” (priority 2008, published 2011).

Entries after “also recorded” stand apart in the source; their conditions may differ.

One experiment relates to CD4+Foxp3:GFP- T cells. The experiment in a line: Conversion of CD4+Foxp3:GFP- T cells into Treg with antibodies to CD3 and CD28 and TGFb1. Format: cell-based. The conditions noted are these: in vitro, anti-CD3/CD28, TGFβ1, FIGS. 1A, 1B. The source says:
FIG. 1A is a set of three FACS plots showing conversion of CD4^+Foxp3:GFP^− T cells into CD4^+Foxp3:GFP^+ Treg by stimulation with antibodies to CD3 and CD28 in the presence of TGFb1 with or without FICZ; FIG. 1b; FIG. 1B presents the data in bar graph format. FIG. 1C is a bar graph showing AHR expression in naïve T cells differentiated in vitro into TH1, TH2 or TH17 cells for four days (mean+s.d. of triplicates normalized to actin expression). FIG. 1D is a bar graph showing AHR expression in naïve T cells differentiated in vitro into TH17 for four days with the indicated cytokines (mean+s.d. of triplicates normalized to actin expression). FIG. 1E is a bar graph showing RORγt expression in naïve T cells differentiated into TH17 for four days with TGFβ1 and IL-6 alone or in combination with FICZ (mean+s.d. of triplicates normalized to actin expression). FIG. 1F is a set of nine FACS plots of frequency of IL-17^+ T cells differentiated with TGFβ1 and IL-6 alone or in combination with IL-23 and/or FICZ for four days. FIG. 1G is a bar graph showing IL-17 and FIG. 1H is a pair of bar graphs showing IL-21 (left) and IL-22 (right) levels in supernatants of cultures prepared as in 1E, as measured by ELISA after 4 days of differentiation into. […]

In the next experiment the test system is naive T cells. The experiment in a line: In vitro TH17 differentiation of naive T cells with TGFβ1 and IL-6 (with or without IL-23). It is filed as cell-based. The source says: FIG. 1A is a set of three FACS plots showing conversion of CD4^+Foxp3:GFP^− T cells into CD4^+Foxp3:GFP^+ Treg by stimulation with antibodies to CD3 and CD28 in the presence of TGFb1 with or without FICZ; FIG. 1b; FIG. 1B presents the data in bar graph format. FIG. 1C is a bar graph showing AHR expression in naïve T cells differentiated in vitro into TH1, TH2 or TH17 cells for four days (mean+s.d. of triplicates normalized to actin expression). FIG. 1D is a bar graph showing AHR expression in naïve T cells differentiated in vitro into TH17 for four days with the indicated cytokines (mean+s.d. of triplicates normalized to actin expression). FIG. 1E is a bar graph showing RORγt expression in naïve T cells differentiated into TH17 for four days with TGFβ1 and IL-6 alone or in combination with FICZ (mean+s.d. of triplicates normalized to actin expression). FIG. 1F is a set of nine FACS plots of frequency of IL-17^+ T cells differentiated with TGFβ1 and IL-6 alone or in combination with IL-23 and/or FICZ for four days. FIG. 1G is a bar graph showing IL-17 and FIG. 1H is a pair of bar graphs showing IL-21 (left) and IL-22 (right) levels in supernatants of cultures prepared as in 1E, as measured by ELISA after 4 days of differentiation into.
Next, the effect of AHR activation by FICZ on in vitro TH17 differentiation was investigated using the TH17 transcription factor RORyt as a marker of TH17 differentiation.

The subject of experiment [1] is EAE mice. The experiment in a line: EAE model (MOG35-55 peptide in CFA), FICZ treatment. Format: in vivo. The procedure:
FIG. 2A is a line graph showing development of EAE on FICZ^− or control-treated mice (mean EAE score+s.e.m.)
FIG. 2B is a pair of bar graphs showing cytokine secretion (pg/ml) triggered by MOG35-55 in splenocytes taken from FICZ or control-treated mice; left, IFNgamma, right, IL-17.
FIGS. 2C-2E are each pairs of FACS plots showing the frequency of IFNγ, (2C), IL-17 (2D) or Foxp3 (2E) in splenocytes from FICZ or control-treated mice.
The effects of FICZ were evaluated in vivo using the EAE model described in PCT International Patent Application NO. PCT/US2008/083016, and U.S. Provisional Patent Application Ser. No. 60/989,309, filed on Nov. 20, 2007.
Mice were treated with PBS (control) or […], immunized with MOG35-55 peptide in CFA and monitored for EAE development.

The next experiment deals with Hep3b cells. Kind of experiment: In vivo model of hepatocellular carcinoma (Hep3b cells in athymic nude mouse reconstituted with splenocytes). The method, then: FIGS. 3A and 3B are bar graphs illustrating AFP levels in HCC tumor models treated with FICZ (3A) or FICZ plus HBSAg (3B).
In this example the effects of FICZ administration on Hepatocellular Carcinoma were evaluated in a mouse model of cancer.
The present study used athymic nude mouse (N=7), a type of laboratory mouse that is hairless, lacks a normal thymus gland, and has a defective immune system because of a genetic mutation.
100 ug of frozen FICZ (BIOMOL International, Plymouth Meeting, Pa.) was dissolved in 5 ml of CREMOPHOR™ (polyethoxylated castor oil):ethanol in phosphate buffered saline (PBS), to produce a working solution of 20 ug/ml. 250 ul (5 ug total) of HBs antigen was injected in Treatment Group C. The experiments were carried out as follows:
Tumor sizes were measured in three dimensions using Vernier calipers and tumor volume was computed assuming a spherical geometry with radius equal to one-half the average tumor dimension: TV (mm^3)=d^2×D/2. Tumors were measured two times a week and mice were monitored routinely to evaluate the effects of treatment.
In addition, serum AFP levels were monitored; AFP is an accepted tumor marker of HCC.

Experiment [2] relates to EAE mice. Kind of experiment: EAE in C57BL/6 mice treated weekly with AHR-ligand nanoparticles. The following applies: weekly from day 0, 45 femtomoles of nanoparticles, FIG. 7. Format: in vivo. The procedure:
FIG. 7 is a line graph showing modulation of EAE by AHR-ligand nanoparticles. EAE was induced in B6 mice (n=5), the mice were treated with nanoparticles weekly starting from day 0, and the animals were followed for signs of EAE.
To investigate the in vivo functionality of AHR-ligand loaded nanoparticles EAE was induced on naïve C57BL/6 mice and treated them, starting at day 0, weekly with 45 femtomoles of nanoparticles.

The subject of another experiment is zebrafish embryos. The experiment in a line: zFoxp3 and IL-17 expression in developing zebrafish embryos. Format: in vivo, zebrafish (Danio rerio). The following applies: treatment of developing zebrafish embryos. From the text: FIG. 4D is a bar graph showing the effect of a specific morpholino antisense oligonucleotide against Foxp3 on IL-17 expression in zebrafish.
Zebrafish eggs were collected within 1 hr of spawning, and purified plasmids or morpholino antisense oligonucleotides were microinjected with a fine glass needle connected to an automatic injector. A morpholino oligonucleotide designed to block the translation of zFoxp3 (5′-[…]-3′) and a 5 bases mismatch control oligonucleotide (5′-GTcTTCgAGTAcCATTAAcAAGgAT-3′) were designed and synthesized by Gene Tools (Philomath, Oreg.). Each morpholino nucleotide was injected into the yolk of embryos at one to four cell stages.

Another experiment deals with T1, AHR (Homo sapiens, UniProt P35869).
T1 construct: endogenous in cells
T1 sequence (P35869 11-848): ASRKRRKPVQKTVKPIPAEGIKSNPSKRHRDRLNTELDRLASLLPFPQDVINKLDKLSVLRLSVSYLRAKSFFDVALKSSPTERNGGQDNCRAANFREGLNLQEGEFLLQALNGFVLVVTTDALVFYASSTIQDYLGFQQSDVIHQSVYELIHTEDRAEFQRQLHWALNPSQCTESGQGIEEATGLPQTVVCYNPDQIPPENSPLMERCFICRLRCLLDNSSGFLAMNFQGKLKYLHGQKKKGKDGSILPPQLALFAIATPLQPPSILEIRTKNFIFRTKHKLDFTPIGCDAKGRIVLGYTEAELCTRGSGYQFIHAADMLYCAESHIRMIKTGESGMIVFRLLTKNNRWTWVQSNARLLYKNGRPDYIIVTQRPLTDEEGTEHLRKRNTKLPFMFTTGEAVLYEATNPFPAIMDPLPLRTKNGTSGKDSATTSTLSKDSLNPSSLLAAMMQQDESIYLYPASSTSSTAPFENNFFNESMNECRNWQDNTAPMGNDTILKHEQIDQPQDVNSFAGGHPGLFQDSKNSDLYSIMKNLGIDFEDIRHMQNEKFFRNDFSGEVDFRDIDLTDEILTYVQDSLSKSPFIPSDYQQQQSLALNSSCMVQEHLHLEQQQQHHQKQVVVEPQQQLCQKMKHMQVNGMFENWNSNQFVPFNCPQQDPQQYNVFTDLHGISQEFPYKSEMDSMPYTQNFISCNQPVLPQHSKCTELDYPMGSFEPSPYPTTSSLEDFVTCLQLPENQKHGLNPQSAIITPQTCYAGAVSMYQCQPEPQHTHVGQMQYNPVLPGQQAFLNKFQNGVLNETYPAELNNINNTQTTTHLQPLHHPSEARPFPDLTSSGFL
The experiment in a line: AHR reporter luciferase construct in HEK 293 cells (dual luciferase assay). The following applies: different concentrations, normalised to Tk-Renilla, FIG. 8. It is filed as cell-based. The procedure: FIG. 8 is a bar graph showing fluorescence in 293 cells transfected with an AHR reporter luciferase construct and a TK-Renilla Luciferase construct for normalization purposes. The cells were incubated with different concentrations of the AHR ligand TCDD and activation of the AHR reporter was followed by monitoring fluorescence from the luciferase.
A construct coding for Foxp3 fused to Renilla luciferase (Ren) was created to provide a simple assay to identify compounds that increase expression of AHR (and thus increase luciferase expression and fluorescence as compared to a control) or that decrease expression of AHR (and thus decrease luciferase expression and fluorescence as compared to a control). HEK 293 cells were transfected as described (Bettelli et al., Proc Natl Acad Sci USA 102, 5138-5143 (2005)) with the AHR reporter luciferase construct and a TK-Renilla Luciferase construct for normalization purposes.
The cells were incubated with different concentrations of the AHR ligand
TCDD and activation of the AHR reporter was assayed using the dual luciferase assay kit ([…].). Tk-Renilla was used for standardization.

Another experiment concerns T cells. The experiment in a line: Th17 differentiation of T cells with antibodies to CD3 and CD28, TGF-beta and IL-21; IL-17 by real time PCR. It is filed as cell-based. The following applies: 100 nM, compared with FICZ, FIG. 9. The method, then:
FIG. 9 is a bar graph T cells differentiation into Th17 cells by in vitro activation with antibodies to CD3 and CD28 in the presence of TGF-beta and IL-21, in the presence of or not of showing beta-naphthoflavone (bNF) or FICZ (100 nM). IL-17 production was measured by real time PCR.
Briefly, T cells were differentiated into Th17 cells by in vitro activation with antibodies to CD3 and CD28 in the presence of TGF-beta and IL-21 as described (Nature 2008; 454(7202):350-2), in the presence or not of bNF or FICZ (100 nM). IL-17 production was measured by real time PCR.

For the molecule `O=Cc1c2c(cc3c1=Nc1ccccc1-3)=Nc1ccccc1-2` [FICZ, 6-formylindolo[3,2-b]carbazole], the “differentiation of Treg triggered by TGFβ1” value in the experiment with CD4+Foxp3:GFP- T cells is “interfered with the differentiation of Treg”. The “expression levels of the TH17 transcription factor RORγt” value in the experiment with naive T cells (FICZ alone, four days, FIG. 1E) is reported as “did not significantly upregulate”. In addition, the “TH17 differentiation in vitro (IL-17+ T cells, IL-17, IL-21, IL-22 levels)” value with naive T cells (with TGFβ1, IL-6 and IL-23, four days, FIGS. 1F-1H) is “synergized with TGFβ1, IL-6 and IL-23 to drive TH17 differentiation”. Moreover, in the experiment on EAE mice [1] (EAE mice), the “Mean day of onset (Mean ± SD)” value is 13.3 ± 1.5 and the “Mean maximum score (mean ± SD)” value is on record as 2.7 ± 1.8. The EAE development result in the experiment on EAE mice [1] (mice, single dose of 1 μg/mouse, FIG. 2A) is recorded as “significant worsening of EAE; also recorded: worsens EAE”. Also, the “frequency of CD4+Foxp3+ Treg” value in the experiment on EAE mice [1] (splenocytes from treated EAE mice, FIG. 2E) is reported as “decrease in the frequency”. The “frequencies of IL-17+ CD4+ and CD4+IFNγ+ T cells” value in the experiment with EAE mice [1] (splenocytes from treated EAE mice, FIGS. 2C, 2D) is reported as “increased frequencies”. Moreover, the “secretion of IL-17 and IFNγ” value with EAE mice [1] (splenocytes from treated mice, in vitro stimulation with MOG35-55, FIG. 2B) is “increased secretion”. Also, in the experiment on Hep3b cells (IP twice a week, caliper measurement), the “tumor growth (tumor volume)” value is “suppressed tumor growth”. Besides, the “tumor growth as measured by serum AFP levels” value with Hep3b cells (seven and 14 days after treatment initiation, FIGS. 3A, 3B) is listed as “significantly suppresses tumor growth”. For the same molecule, the EAE development result in the experiment on EAE mice [2] is “worsened the disease”.

As for `Clc1cc2c(cc1Cl)Oc1cc(Cl)c(Cl)cc1O2` [TCDD, 2,3,7,8-tetrachlorodibenzo-p-dioxin], in the experiment on zebrafish embryos, the IL-17 expression entry is “down regulation” and the zFoxp3 expression entry is “dose-dependent increase”. The EAE development result with EAE mice [2] is “complete suppression of EAE”. In addition, the “expression of the AHR reporter” value on AHR was “dose-dependent increases”.

Take `O=c1cc(-c2ccccc2)oc2ccc3ccccc3c12` [bNF, beta-naphthoflavone]: the “T cell differentiation into TH17 cells (IL-17 production by real time PCR)” value in the experiment with T cells is listed as “same effect”.

Regarding `Oc1ccc(C=Cc2cc(O)cc(O)c2)cc1` [resveratrol], the “effect on FICZ synergism in TH17 differentiation” value with naive T cells (AHR antagonist added, FIG. 1I) is “blocked”.
